The values that follow come from patent publication US7462227B2 (E.I. du Pont de Nemours and Company, priority 2005, dated 2008).

“Also recorded” adds a separate entry of the source.

One data set relates to termites. The conditions noted are these: Connick et al 2001; cited from earlier work.

Protocol for Solubility: In general, solubility of the complex is determined by visual observation, and a complex is considered to be solbilized when a sufficient amount of the complex is dissolved in the solution to permit a desired amount of the complex to be adsorbed on and/or absorbed in the cellulosic material when the treatment thereof occurs.

As for `CC(C)Cc1ccc(C(C)C(=O)O)cc1` (centres unmarked) [ibuprofen], in “Solubility”, the “solubility in methanol and ethanol” value is given as “soluble”; the solubility in water result is “relatively insoluble; also recorded: only slightly soluble”. The toxicity to termites result in the data set with termites was “toxic”.
In the case of `CC(C)Cc1ccc(C(C)C(=O)[O-])cc1.[Na+]` (centres unmarked) [sodium ibuprofenate], in “Solubility”, the “solubility in methanol and ethanol” value is recorded as “soluble”; the solubility in water entry is “relatively insoluble”.
